Read-outs that look alike come from different tables or passages of the source.
What was measured:
[1] = system: ventral prostate and levator ani of immature castrated male Sprague Dawley rats; experiment: Ventral Prostate and Levator ani Weight in vivo Assay (agonist activity); set-up: key to % Prostate Stimulation / % levator ani Stimulation: level 1 agonist active if it produced greater than or equal to 30% stimulation of levator ani or ventral prostate at 30 mg/kg; level 2 agonist active if it produced greater than or equal to 5% but less than 30% stimulation of levator ani or ventral prostate at 30 mg/kg; listed herein as “inactive” as they did not meet the specified criteria defined above; conditions: once daily for five days, oral, vehicle = 0%, testosterone propionate = 100%, criteria at 30 mg/kg; for change in vivo at 30 mg/kg: Rattus norvegicus, 120 h
Description: Immature (approximately 50 g) castrated male Sprague Dawley rats (Charles River) were treated once daily for five days with test compound ([…], in 30% cyclodextrin or 0.5% methylcellulose vehicle), or with testosterone propionate (administered subcutaneously by injection at the nape of the neck at 5 mg/kg, in a volume of 0.1 mL in sesame oil), or with vehicle (1 mL of 30% cyclodextrin or 0.5% methylcellulose, given orally). On the sixth day, the rats were euthanized by asphyxiation in carbon dioxide. Ventral prostates and levator ani. muscle were removed and their wet weights determined.
Test compound activity was determined as the percent stimulation of tissue weight, with the vehicle-treated control group set to zero percent and the testosterone alone-treated control group set to 100%.

[2] = system: ventral prostate and seminal vesicle of immature castrated male Sprague Dawley rats; experiment: Ventral Prostate and Seminal Vesicle Weight in vivo Assay (antagonist activity, with testosterone propionate); set-up: key to Inhibition of prostate (non-weight prostate weight, mg) / Inhibition of seminal vesicle (non-weight seminal vesicle weight, mg): level 1 agonist active if it produced greater than or equal to 30% stimulation of levator ani or ventral prostate at 30 mg/kg; level 2 agonist active if it produced greater than or equal to 5% but less than 30% stimulation of levator ani or ventral prostate at 30 mg/kg; listed herein as “inactive” as they did not meet the specified criteria defined above; conditions: test compound oral plus testosterone propionate 2 mg/kg s.c., five days, criteria at 30 mg/kg; for inhibition in vivo at 30 mg/kg: Rattus norvegicus, 120 h
Description: Immature (approximately 50 g) castrated male Sprague Dawley rats (Charles River) were treated once daily for five days with test compound ([…], in 30% cyclodextrin or 0.5% methylcellulose vehicle) and with testosterone propionate (given subcutaneously by injection at the nape of the neck at 2 mg/kg, in a volume of 0.1 mL in sesame oil). On the sixth day, the rats were euthanized by asphyxiation in carbon dioxide. Ventral prosatates and seminal vesicles were removed and their wet weights determined. Test compound activity was determined as the percent inhibition of testosterone-enhanced tissue weights, with a vehicle-treated control group set to zero percent and a testosterone alone-treated control group set to 100%.

[3] = levator ani wet weight, read-out: % levator ani Stimulation
[4] = ventral prostate wet weight, read-out: % Prostate Stimulation
[5] = seminal vesicle wet weight, read-out: Inhibition of seminal vesicle (non-weight seminal vesicle weight, mg)
[6] = ventral prostate wet weight, read-out: Inhibition of prostate (non-weight prostate weight, mg)
[7] = levator ani wet weight, 30 mg/kg
[8] = ventral prostate wet weight, 30 mg/kg

| Structure (SMILES) | change in vivo at 30 mg/kg [1, 3] [%] | change in vivo at 30 mg/kg [1, 4] [%] | inhibition in vivo at 30 mg/kg [2, 5] [%] | inhibition in vivo at 30 mg/kg [2, 6] [%] | % levator ani Stimulation [1, 7] | % Prostate Stimulation [1, 8] | Inhibition of seminal vesicle (non-weight seminal vesicle weight, mg) ([2]; seminal vesicle wet weight) | Inhibition of prostate (non-weight prostate weight, mg) ([2]; ventral prostate wet weight) | % levator ani Stimulation ([1]; levator ani wet weight) | % Prostate Stimulation ([1]; ventral prostate wet weight) |
| --- | --- | --- | --- | --- | --- | --- | --- | --- | --- | --- |
| CC12CC(C(F)(F)F)=NN1C(N)=N/C2=N\c1ccc(C#N)c(C(F)(F)F)c1 (stereo not shown) [Compound 1, 4-(6-Amino-3a-methyl-2-trifluoromethyl-3,3a-dihydro-imidazo[1,5-b]pyrazol-4-ylideneamino)-2-trifluoromethyl-benzonitrile] | ≥ 30 | ≥ 30 | ≥ 30 | 5 to 30 |  |  |  |  |  |  |
| C[C@@]12CC(C(F)(F)F)=NN1C(N)=N/C2=N\c1ccc(C#N)c(C(F)(F)F)c1 [Compound 3, 4-(6-Amino-3aS-methyl-2-trifluoromethyl-3,3a-dihydro-imidazo[1,5-b]pyrazol-4-ylideneamino)-2-trifluoromethyl-benzonitrile] | ≥ 30 | 5 to 30 | 5 to 30 | ≥ 30 |  |  |  |  |  |  |
| C[C@]12CC(C(F)(F)F)=NN1C(N)=NC2=Nc1ccc(C#N)c(C(F)(F)F)c1.O [Compound 16, 4-(6-Amino-3aR-methyl-2-trifluoromethyl-3,3a-dihydro-imidazo[1,5-b]pyrazol-4-ylideneamino)-2-trifluoromethyl-benzonitrile-Hydrates] |  |  |  |  | level 1 (level 1 agonist active if it produced greater than or equal to 30% stimulation of levator ani or ventral prostate at 30 mg/kg) | level 1 (level 1 agonist active if it produced greater than or equal to 30% stimulation of levator ani or ventral prostate at 30 mg/kg) | level 2 (level 2 antagonist active if it produced greater than or equal to 5% but less than 30% inhibition of ventral prostate or seminal vesicle at 30 mg/kg) | level 2 (level 2 antagonist active if it produced greater than or equal to 5% but less than 30% inhibition of ventral prostate or seminal vesicle at 30 mg/kg) |  |  |
| C[C@]12CC(C(F)(F)F)=NN1C(N)=NC2=Nc1ccc(C#N)c(C(F)(F)F)c1.O [Compound 17, 4-(6-Amino-3aR-methyl-2-trifluoromethyl-3,3a-dihydro-imidazo[1,5-b]pyrazol-4-ylideneamino)-2-trifluoromethyl-benzonitrile-Hydrates] |  |  |  |  | level 1 (level 1 agonist active if it produced greater than or equal to 30% stimulation of levator ani or ventral prostate at 30 mg/kg) | level 2 (level 2 agonist active if it produced greater than or equal to 5% but less than 30% stimulation of levator ani or ventral prostate at 30 mg/kg) | leve 1 | inactive |  |  |
| C[C@]12CC(C(F)(F)F)=NN1C(N)=N/C2=N\c1ccc(C#N)c(C(F)(F)F)c1 [Compound 2, 4-(6-Amino-3aR-methyl-2-trifluoromethyl-3,3a-dihydro-imidazo[1,5-b]pyrazol-4-ylideneamino)-2-trifluoromethyl-benzonitrile] | ≥ 30 | ≥ 30 |  | 5 to 30 |  |  | inactive |  |  |  |
| CC12CC=NN1C(N)=N/C2=N\c1ccc(C#N)c(C(F)(F)F)c1 (stereo not shown) [Compound 6, 4-(6-Amino-3a-methyl-3,3a-dihydro-imidazo[1,5-b]pyrazol-4-ylideneamino)-2-trifluoromethyl-benzonitrile] |  |  | 5 to 30 |  |  |  |  | inactive | inactive | inactive |
| C[C@]12CC(C(F)(F)F)=NN1C(NC(=O)C(F)(F)F)=N/C2=N\c1ccc(C#N)c(C(F)(F)F)c1 [Compound 13, N-[4-(4-Cyano-3-trifluoromethyl-phenylimino)-3aR-methyl-2-trifluoromethyl-3a,4-dihydro-3H-imidazo[1,5-b]pyrazol-6-yl]-2,2,2-trifluoro-acetamide] | ≥ 30 | ≥ 30 | 5 to 30 | ≥ 30 |  |  |  |  |  |  |
